From patent US5322928A, “Diapause hormone isolated from silkworm exhibiting improved diapause activity” (Shionogi Seiyaku Kabushiki Kaisha, priority 1991, dated 1994)
Where no end group is shown, it is not given here.

Tested on: silkworm non-diapause strain (N4 line) pupa
Test: Assay of bioactivity: specimen injected into 4 days-age pupa of non-diapause strain, percentage of laid eggs that diapause
Assay type: in vivo, silkworm (Bombyx mori)
Conditions: qualitative
Experimental: The hormonal activity was confirmed by the following method: the specimen is injected into the 4 days-age pupa of non-diapause strain. After the pupa transforms into a imago, copulates, and lays eggs, it is investigated whether or not the eggs diapause without embryogenesis. […] In case that the specimen has the hormonal activity, the color of the eggs becomes blackish-brown which is not observed in non-diapausing eggs. […] The hormonal activity is determined by calculating what percentage of the eggs laid by one imago diapauses. One diapause hormone unit is the amount of the hormone which make 50% of the laid eggs diapause. In this invention, the isolated diapause hormone was 0.1 ng/unit.

Row | Substance | diapause hormone activity (hormonal activity in bioassay)
1 | TDMKDESDRGAHSERGALCFGPRL-NH2 [amino acid 19 is Cys] | have diapause activity
2 | TDMKDESDRGAHSERGALWFGPRL-NH2 [amino acid 19 is Trp] | have diapause activity
